Test results from the kinase profiling compilation of Christmann-Franck et al. (2016).

Key:
Conditions in all cases: compound 10.0 µM
[1] = tested on: ABL1 (human), P00519 [Y253F]
[2] = molecular target: AKT2 (human) (UniProt P31751)
[3] = molecular target: ALK (human) (UniProt Q9UM73)
[4] = molecular target: ANKK1 (human) (UniProt Q8NFD2)
[5] = molecular target: CLK2 (human) (UniProt P49760)
[6] = molecular target: CSF1R (human) (UniProt P07333)
[7] = tested on: EGFR (human), P00533 [747-751 del / S ins]
[8] = tested on: EGFR (human), P00533 [A750P; 747-749 del]
[9] = tested on: EGFR (human), P00533 [G719C]
[10] = tested on: EGFR (human), P00533 [G719S]
[11] = tested on: EGFR (human), P00533 [L858R]
[12] = tested on: EGFR (human), P00533 [L861Q]
[13] = tested on: EGFR (human), P00533 [P753S; 747-752 del]
[14] = tested on: EGFR (human), P00533 [T790M]
[15] = molecular target: EPHB4 (human) (UniProt P54760)
[16] = tested on: FLT3 (human), P36888 [D835Y]
[17] = molecular target: FRK (human) (UniProt P42685)
[18] = molecular target: GRK4 (human) (UniProt P32298)
Chain of GRK4 (human) (P32298 whole entry, looked up): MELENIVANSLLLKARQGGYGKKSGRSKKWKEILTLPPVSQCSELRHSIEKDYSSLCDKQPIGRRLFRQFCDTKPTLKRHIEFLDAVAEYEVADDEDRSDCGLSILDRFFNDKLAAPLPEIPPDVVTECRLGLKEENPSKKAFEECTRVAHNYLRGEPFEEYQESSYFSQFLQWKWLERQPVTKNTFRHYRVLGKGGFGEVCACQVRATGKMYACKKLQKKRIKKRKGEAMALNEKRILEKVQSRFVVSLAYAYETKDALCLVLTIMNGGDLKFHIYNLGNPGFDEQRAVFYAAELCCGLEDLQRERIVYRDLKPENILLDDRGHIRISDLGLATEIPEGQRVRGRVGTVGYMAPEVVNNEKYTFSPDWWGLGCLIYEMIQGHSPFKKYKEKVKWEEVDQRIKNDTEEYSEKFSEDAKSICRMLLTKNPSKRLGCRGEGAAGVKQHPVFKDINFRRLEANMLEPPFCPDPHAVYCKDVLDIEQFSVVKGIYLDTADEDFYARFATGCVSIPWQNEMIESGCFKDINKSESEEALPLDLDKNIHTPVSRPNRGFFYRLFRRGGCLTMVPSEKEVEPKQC

[19] = molecular target: HIPK2 (human) (UniProt Q9H2X6)
[20] = molecular target: KDR (human) (UniProt P35968)
[21] = tested on: KIT (human), P10721 [A829P]
[22] = tested on: KIT (human), P10721 [D816V]
[23] = molecular target: MAP2K1 (human) (UniProt Q02750)
Chain of MAP2K1 (human) (Q02750 whole entry, looked up): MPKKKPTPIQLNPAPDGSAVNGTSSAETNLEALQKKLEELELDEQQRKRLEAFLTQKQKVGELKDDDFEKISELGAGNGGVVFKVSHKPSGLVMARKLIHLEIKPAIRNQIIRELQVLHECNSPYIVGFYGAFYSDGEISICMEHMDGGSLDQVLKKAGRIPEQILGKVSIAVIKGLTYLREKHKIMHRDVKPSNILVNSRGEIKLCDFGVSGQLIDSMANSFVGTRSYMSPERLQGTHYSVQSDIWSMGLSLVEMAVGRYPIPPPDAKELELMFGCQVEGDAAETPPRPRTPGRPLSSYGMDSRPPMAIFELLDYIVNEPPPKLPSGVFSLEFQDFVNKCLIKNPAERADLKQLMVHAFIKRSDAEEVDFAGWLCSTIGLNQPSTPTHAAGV

[24] = molecular target: MAPK15 (human) (UniProt Q8TD08)
Chain of MAPK15 (human) (Q8TD08 whole entry, looked up): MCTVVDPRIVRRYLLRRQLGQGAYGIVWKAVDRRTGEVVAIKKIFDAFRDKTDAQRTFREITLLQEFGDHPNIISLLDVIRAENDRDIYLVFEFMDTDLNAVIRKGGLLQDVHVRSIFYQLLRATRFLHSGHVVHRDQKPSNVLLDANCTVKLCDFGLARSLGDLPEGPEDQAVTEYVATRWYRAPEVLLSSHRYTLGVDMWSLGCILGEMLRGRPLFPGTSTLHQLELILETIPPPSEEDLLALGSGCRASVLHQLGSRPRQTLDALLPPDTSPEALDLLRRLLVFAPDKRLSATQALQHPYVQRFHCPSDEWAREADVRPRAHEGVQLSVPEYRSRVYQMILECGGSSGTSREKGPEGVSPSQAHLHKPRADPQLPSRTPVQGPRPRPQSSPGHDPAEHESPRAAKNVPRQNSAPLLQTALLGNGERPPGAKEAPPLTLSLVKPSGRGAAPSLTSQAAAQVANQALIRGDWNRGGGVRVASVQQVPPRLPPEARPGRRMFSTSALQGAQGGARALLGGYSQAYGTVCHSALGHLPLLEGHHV

[25] = molecular target: MYLK3 (human) (UniProt Q32MK0)
[26] = molecular target: NEK1 (human) (UniProt Q96PY6)
[27] = molecular target: NTRK3 (human) (UniProt Q16288)
[28] = molecular target: PIK3CA (human) (UniProt P42336)
[29] = tested on: PIK3CA (human), P42336 [E542K]
[30] = tested on: PIK3CA (human), P42336 [E545A]
[31] = tested on: PIK3CA (human), P42336 [E545K]
[32] = tested on: PIK3CA (human), P42336 [H1047L]
[33] = tested on: PIK3CA (human), P42336 [H1047Y]
[34] = tested on: PIK3CA (human), P42336 [I800L]
[35] = tested on: PIK3CA (human), P42336 [M1043I]
[36] = tested on: PIK3CA (human), P42336 [Q546K]
[37] = molecular target: PIK3CD (human) (UniProt O00329)
[38] = molecular target: PIK3CG (human) (UniProt P48736)
[39] = molecular target: PKN2 (human) (UniProt Q16513)
Chain of PKN2 (human) (Q16513 whole entry, looked up): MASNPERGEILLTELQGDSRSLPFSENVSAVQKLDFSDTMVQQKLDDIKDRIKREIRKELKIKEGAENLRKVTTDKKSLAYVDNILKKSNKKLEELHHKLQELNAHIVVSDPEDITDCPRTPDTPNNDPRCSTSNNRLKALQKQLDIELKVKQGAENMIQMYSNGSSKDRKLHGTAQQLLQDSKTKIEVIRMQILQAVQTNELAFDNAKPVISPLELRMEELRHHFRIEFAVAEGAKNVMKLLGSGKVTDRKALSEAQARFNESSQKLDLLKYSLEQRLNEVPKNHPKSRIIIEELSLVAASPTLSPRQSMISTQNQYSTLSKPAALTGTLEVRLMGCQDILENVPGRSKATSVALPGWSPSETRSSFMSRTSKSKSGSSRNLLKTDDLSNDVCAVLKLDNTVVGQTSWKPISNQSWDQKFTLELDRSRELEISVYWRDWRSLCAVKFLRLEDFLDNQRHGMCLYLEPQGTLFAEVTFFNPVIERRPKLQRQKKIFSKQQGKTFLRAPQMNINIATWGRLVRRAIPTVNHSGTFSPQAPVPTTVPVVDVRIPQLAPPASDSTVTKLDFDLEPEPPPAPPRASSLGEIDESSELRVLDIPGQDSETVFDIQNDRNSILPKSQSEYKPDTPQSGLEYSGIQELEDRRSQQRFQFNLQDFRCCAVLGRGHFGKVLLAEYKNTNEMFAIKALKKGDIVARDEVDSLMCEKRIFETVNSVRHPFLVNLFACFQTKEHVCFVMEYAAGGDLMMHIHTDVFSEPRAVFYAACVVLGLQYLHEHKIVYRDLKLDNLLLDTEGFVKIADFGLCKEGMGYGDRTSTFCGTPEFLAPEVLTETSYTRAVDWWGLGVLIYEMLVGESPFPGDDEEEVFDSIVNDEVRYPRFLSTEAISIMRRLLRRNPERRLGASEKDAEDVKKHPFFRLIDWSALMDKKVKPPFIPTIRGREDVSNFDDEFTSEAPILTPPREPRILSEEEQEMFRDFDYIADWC

[40] = molecular target: SRC (human) (UniProt P12931)
[41] = molecular target: TIE1 (human) (UniProt P35590)

Chain of ALK (human) (Q9UM73 whole entry, looked up): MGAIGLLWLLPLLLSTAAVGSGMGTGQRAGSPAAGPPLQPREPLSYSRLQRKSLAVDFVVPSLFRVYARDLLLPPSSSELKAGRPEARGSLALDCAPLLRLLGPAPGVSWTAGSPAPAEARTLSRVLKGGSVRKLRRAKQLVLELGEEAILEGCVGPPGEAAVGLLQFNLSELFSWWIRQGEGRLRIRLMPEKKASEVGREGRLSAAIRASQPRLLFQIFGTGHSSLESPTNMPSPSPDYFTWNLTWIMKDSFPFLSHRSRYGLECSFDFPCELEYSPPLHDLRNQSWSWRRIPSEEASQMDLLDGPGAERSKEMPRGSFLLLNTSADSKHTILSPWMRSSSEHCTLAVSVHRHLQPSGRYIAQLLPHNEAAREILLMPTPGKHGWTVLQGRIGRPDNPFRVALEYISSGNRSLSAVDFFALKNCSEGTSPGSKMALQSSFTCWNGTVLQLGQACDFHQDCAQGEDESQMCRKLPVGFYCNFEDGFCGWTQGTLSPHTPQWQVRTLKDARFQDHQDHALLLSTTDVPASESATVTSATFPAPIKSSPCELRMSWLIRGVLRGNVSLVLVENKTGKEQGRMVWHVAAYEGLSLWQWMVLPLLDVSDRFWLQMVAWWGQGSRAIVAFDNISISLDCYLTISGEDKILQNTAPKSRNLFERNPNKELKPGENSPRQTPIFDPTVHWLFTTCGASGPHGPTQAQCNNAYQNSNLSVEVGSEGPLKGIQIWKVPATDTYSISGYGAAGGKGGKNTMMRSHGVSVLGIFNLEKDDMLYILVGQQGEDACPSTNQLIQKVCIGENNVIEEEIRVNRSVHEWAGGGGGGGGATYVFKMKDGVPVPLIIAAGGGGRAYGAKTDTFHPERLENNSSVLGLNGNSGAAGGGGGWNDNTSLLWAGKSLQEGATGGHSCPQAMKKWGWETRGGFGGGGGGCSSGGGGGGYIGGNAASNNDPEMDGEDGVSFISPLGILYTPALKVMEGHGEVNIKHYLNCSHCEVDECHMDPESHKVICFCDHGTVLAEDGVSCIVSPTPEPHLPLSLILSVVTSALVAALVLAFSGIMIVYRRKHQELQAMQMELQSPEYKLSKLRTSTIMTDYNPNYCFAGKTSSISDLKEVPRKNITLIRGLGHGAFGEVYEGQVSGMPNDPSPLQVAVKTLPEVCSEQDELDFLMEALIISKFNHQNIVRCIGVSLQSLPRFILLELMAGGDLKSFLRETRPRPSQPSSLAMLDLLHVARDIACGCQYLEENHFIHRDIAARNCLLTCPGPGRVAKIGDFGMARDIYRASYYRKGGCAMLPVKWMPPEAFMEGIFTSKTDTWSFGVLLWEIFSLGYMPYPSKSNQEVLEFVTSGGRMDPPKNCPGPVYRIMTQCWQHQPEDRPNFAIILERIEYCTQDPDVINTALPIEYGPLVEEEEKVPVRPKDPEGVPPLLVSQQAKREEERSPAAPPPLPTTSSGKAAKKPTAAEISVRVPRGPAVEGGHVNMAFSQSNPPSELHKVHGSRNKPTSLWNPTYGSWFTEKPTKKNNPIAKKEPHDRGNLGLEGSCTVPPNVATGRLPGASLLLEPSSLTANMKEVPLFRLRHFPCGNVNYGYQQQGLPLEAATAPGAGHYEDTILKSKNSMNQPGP
Chain of CSF1R (human) (P07333 whole entry, looked up): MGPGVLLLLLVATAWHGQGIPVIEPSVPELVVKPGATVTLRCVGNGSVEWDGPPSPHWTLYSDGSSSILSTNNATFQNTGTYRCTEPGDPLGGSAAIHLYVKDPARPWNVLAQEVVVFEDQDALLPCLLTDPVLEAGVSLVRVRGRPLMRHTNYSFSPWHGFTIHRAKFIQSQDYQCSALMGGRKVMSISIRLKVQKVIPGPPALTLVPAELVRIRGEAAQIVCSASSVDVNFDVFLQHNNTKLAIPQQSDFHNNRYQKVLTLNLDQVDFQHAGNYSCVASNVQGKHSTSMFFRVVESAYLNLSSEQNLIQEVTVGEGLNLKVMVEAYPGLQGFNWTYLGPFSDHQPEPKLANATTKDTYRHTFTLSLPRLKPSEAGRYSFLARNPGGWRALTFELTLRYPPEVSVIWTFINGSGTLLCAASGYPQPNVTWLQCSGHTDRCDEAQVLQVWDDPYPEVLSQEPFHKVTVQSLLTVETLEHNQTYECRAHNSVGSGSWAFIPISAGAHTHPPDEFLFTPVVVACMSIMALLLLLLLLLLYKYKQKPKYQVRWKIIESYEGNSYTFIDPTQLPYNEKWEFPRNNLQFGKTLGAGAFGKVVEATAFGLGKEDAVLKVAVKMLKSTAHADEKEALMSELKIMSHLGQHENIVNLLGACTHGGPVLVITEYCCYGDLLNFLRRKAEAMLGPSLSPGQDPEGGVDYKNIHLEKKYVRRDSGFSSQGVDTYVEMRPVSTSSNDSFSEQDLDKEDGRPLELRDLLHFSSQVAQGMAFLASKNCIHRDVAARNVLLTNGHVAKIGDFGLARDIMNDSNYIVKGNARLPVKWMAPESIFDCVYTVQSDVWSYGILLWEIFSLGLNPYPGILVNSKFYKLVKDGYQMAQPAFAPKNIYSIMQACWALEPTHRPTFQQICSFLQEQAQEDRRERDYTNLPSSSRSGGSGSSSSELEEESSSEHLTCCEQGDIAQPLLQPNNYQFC

For `CNC(=O)c1cc(Oc2ccc(NC(=O)Nc3ccc(Cl)c(C(F)(F)F)c3)cc2)cc[n+]1[O-]`, the per cent of control [1] was 30%, the per cent of control [2] was 88% and the per cent of control [3] was 94%. The per cent of control [4] was 58%, the per cent of control [5] was 80% and the per cent of control [6] was 0%. For the same compound, the per cent of control [7] was 76%, the per cent of control [8] was 70% and the per cent of control [9] was 80%. For the same compound, the per cent of control [10] was 100%, the per cent of control [11] was 88% and the per cent of control [12] was 74%. For the same compound, the per cent of control [13] was 77%, the per cent of control [14] was 100% and the per cent of control [15] was 16%. It also gave a per cent of control [16] of 2.8%, a per cent of control [17] of 1.8% and a per cent of control [18] of 100%. For the same compound, the per cent of control [19] was 20%, the per cent of control [20] was 0.4% and the per cent of control [21] was 26%. For the same compound, the per cent of control [22] was 2.6%, the per cent of control [23] was 80% and the per cent of control [24] was 0.6%. It also gave a per cent of control [25] of 2.8%, a per cent of control [26] of 84% and a per cent of control [27] of 0.35%. The per cent of control [28] was 95%, the per cent of control [29] was 100% and the per cent of control [30] was 100%. The per cent of control [31] was 100%, the per cent of control [32] was 98% and the per cent of control [33] was 100%. For the same compound, the per cent of control [34] was 100%, the per cent of control [35] was 83% and the per cent of control [36] was 100%. It also gave a per cent of control [37] of 100%, a per cent of control [38] of 82% and a per cent of control [39] of 91%. It also gave a per cent of control [40] of 53% and a per cent of control [41] of 0.3%.
For `CNC(=O)c1cc(Oc2ccc(NC(=O)Nc3ccc(Cl)c(C(F)(F)F)c3)cc2)ccn1`, the per cent of control [3] was 100%, the per cent of control [18] was 99% and the per cent of control [23] was 95%. It also gave a per cent of control [39] of 100%.
